Source: ChEMBL document CHEMBL2375212, “Synthesis and evaluation of novel marine bromopyrrole alkaloid-based hybrids as anticancer agents” (Eur J Med Chem, 2013)
Values after ≈ are worked out from the molar mass of the structure shown.

Tests used:
Caco-2 = test: Cytotoxicity against human Caco2 cells compound treated for 6 hrs measured 48 hrs post washout by MTT assay; format: functional, cell-based
[1] = Cytotoxicity against human KB403 cells compound treated for 6 hrs measured 48 hrs post washout by MTT assay; format: functional, cell-based
PA-1 = test: Cytotoxicity against human PA1 cells compound treated for 6 hrs measured 48 hrs post washout by MTT assay; format: functional, cell-based
MCF7 [2] = test: Cytotoxicity against human MCF7 cells compound treated for 6 hrs measured 48 hrs post washout by MTT assay; format: functional, cell-based
WRL68 = test: Cytotoxicity against human WRL68 cells compound treated for 6 hrs measured 48 hrs post washout by MTT assay; format: functional, cell-based
HepG2 = test: Cytotoxicity against human HepG2 cells by MTT assay; format: functional, cell-based
[3] = Cytotoxicity against mouse SVEC cells by MTT assay; format: functional, cell-based
COLO 205 = test: Cytotoxicity against human COLO205 cells by MTT assay; format: functional, cell-based
MCF7 [4] = test: Cytotoxicity against human MCF7 cells by MTT assay; format: functional, cell-based
P388 = test: Cytotoxicity against mouse P388 cells by MTT assay; format: functional; conditions: read-out: ED50 (the source's name)
[5] = biological target: Dual specificity mitogen-activated protein kinase kinase 1 (Homo sapiens, UniProt Q02750); test: Inhibition of MEK1 (unknown origin)
Dual specificity mitogen-activated protein kinase kinase 1, sequence (Q02750 whole entry): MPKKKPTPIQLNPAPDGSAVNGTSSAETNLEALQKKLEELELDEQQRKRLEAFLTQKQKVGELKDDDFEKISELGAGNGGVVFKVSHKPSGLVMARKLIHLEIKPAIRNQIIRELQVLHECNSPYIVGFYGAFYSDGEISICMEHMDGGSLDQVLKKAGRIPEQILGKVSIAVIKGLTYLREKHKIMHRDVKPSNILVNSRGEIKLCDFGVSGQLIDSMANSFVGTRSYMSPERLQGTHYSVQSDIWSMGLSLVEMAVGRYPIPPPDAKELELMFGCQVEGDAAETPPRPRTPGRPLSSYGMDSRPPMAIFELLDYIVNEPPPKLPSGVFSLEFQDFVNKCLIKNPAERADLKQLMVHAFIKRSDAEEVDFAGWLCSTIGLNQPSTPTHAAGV

IC50 [5] | SMILES | IC50 (Caco-2) | IC50 [1] | IC50 (PA-1) | IC50 (MCF7 [2]) | IC50 (WRL68) | IC50 (HepG2) | IC50 [3] | IC50 (COLO 205) | IC50 (MCF7 [4]) | EC50 (P388)
– | O=C(/C=C/c1cc(Br)c(Br)[nH]1)c1ccc[nH]1 | ≥ 100 µM | ≥ 100 µM | 0.5 µM | 0.072 µM | ≥ 100 µM | – | – | – | – | –
– | Cn1c(-c2cc(-c3ccccc3)no2)cc(Br)c1Br | 16.6 µM | ≥ 100 µM | ≥ 100 µM | ≥ 100 µM | ≥ 100 µM | – | – | – | – | –
– | Cn1c(/C=C/C(=O)c2cccc(O)c2)cc(Br)c1Br | ≥ 100 µM | ≥ 100 µM | ≥ 100 µM | 12.8 µM | ≥ 100 µM | – | – | – | – | –
– | Cn1c(/C=C/C(=O)c2ccc(O)cc2O)cc(Br)c1Br | 3.53 µM | 12 µM | 0.83 µM | 1.61 µM | 0.18 µM | – | – | – | – | –
– | Cn1c(-c2cc(-c3ccc[nH]3)no2)cc(Br)c1Br | ≥ 100 µM | 3.1 µM | ≥ 100 µM | ≥ 100 µM | ≥ 100 µM | – | – | – | – | –
– | COC(=O)C(NCC(=O)c1cc(Br)c(Br)[nH]1)C(C)C (centres undefined) | – | – | – | – | – | 15.3 µg/mL | – | – | – | –
– | COc1cc(-c2cc(-c3cc(OC)c(OC)c(OC)c3)on2)ccc1O | – | – | – | – | – | – | 23.5 µM | – | – | –
– | c1ccc(-c2cc(COc3ccccc3-c3nc4ccccc4s3)on2)cc1 | – | – | – | – | – | – | – | 14.2 µM | – | –
– | COc1ccc(OC)c(C(=O)/C=C/c2cc(Br)c(Br)[nH]2)c1 | ≥ 100 µM | ≥ 100 µM | 0.42 µM | 0.22 µM | 12.3 µM | – | – | – | – | –
– | Cn1c(-c2cc(=O)c3ccccc3o2)cc(Br)c1Br | ≥ 100 µM | 0.67 µM | 0.6 µM | ≥ 100 µM | ≥ 100 µM | – | – | – | – | –
– | Cn1c(/C=C/C(=O)c2ccc[nH]2)cc(Br)c1Br | ≥ 100 µM | 0.6 µM | 0.73 µM | 0.45 µM | 2.11 µM | – | – | – | – | –
– | O=C(/C=C/c1cccc(Cl)c1)c1ccccc1 | – | – | – | – | – | – | – | – | 5.25 µg/mL (≈ 21.6 µM) | –
– | COC(=O)C[C@H]1CNC(=O)c2cc(Br)c(Br)n21 | – | – | – | – | – | – | – | – | – | 30 µg/mL (≈ 82 µM)
– | Cn1c(/C=C/C(=O)c2cccc(N)c2)cc(Br)c1Br | ≥ 100 µM | ≥ 100 µM | ≥ 100 µM | 12.4 µM | ≥ 100 µM | – | – | – | – | –
– | Cn1c(/C=C/C(=O)c2ccccc2)cc(Br)c1Br | ≥ 100 µM | ≥ 100 µM | ≥ 100 µM | 35.4 µM | ≥ 100 µM | – | – | – | – | –
– | CC(=O)O[C@H]1C(=O)[C@@]2(C)[C@H]([C@H](OC(=O)c3ccccc3)[C@]3(O)C[C@H](OC(=O)[C@H](O)[C@@H](NC(=O)c4ccccc4)c4ccccc4)C(C)=C1C3(C)C)[C@]1(OC(C)=O)CO[C@@H]1C[C@@H]2O [PACLITAXEL] | – | 0.001 µM | 0.008 µM | – | – | – | – | – | – | –

IC50 [5] | SMILES | IC50 (Caco-2) | IC50 [1] | IC50 (PA-1) | IC50 (MCF7 [2]) | IC50 (WRL68) | IC50 (HepG2) | IC50 [3] | IC50 (COLO 205) | IC50 (MCF7 [4]) | EC50 (P388)
– | O=C(/C=C/c1cc(Br)c(Br)[nH]1)c1ccccc1O | ≥ 100 µM | ≥ 100 µM | 0.33 µM | 1.49 µM | 1.42 µM | – | – | – | – | –
– | Cn1c(/C=C/C(=O)c2cc(O)ccc2O)cc(Br)c1Br | ≥ 100 µM | ≥ 100 µM | 0.38 µM | 0.32 µM | 0.88 µM | – | – | – | – | –
– | Brc1cc(-c2cc(-c3ccc[nH]3)no2)[nH]c1Br | ≥ 100 µM | 4.82 µM | ≥ 100 µM | ≥ 100 µM | ≥ 100 µM | – | – | – | – | –
– | Cn1c(/C=C/C(=O)c2ccccc2O)cc(Br)c1Br | 3.16 µM | 8.32 µM | 1.25 µM | 2.51 µM | 0.33 µM | – | – | – | – | –
– | O=c1cc(C2CCCCC2)oc2ccccc12 | – | – | – | – | – | 2.9 µM | – | – | – | –
– | O=C(/C=C/c1cc(Br)c(Br)[nH]1)c1ccccc1 | ≥ 100 µM | ≥ 100 µM | ≥ 100 µM | 12.2 µM | ≥ 100 µM | – | – | – | – | –
– | COc1ccc(C(=O)/C=C/c2cc(Br)c(Br)n2C)c(OC)c1 | ≥ 100 µM | ≥ 100 µM | 0.52 µM | 0.08 µM | 0.64 µM | – | – | – | – | –
– | Oc1ccccc1-c1cc(-c2cc(Br)c(Br)[nH]2)on1 | ≥ 100 µM | 16.4 µM | ≥ 100 µM | ≥ 100 µM | ≥ 100 µM | – | – | – | – | –
– | COc1ccc(OC)c(C(=O)/C=C/c2cc(Br)c(Br)n2C)c1 | ≥ 100 µM | ≥ 100 µM | 0.8 µM | 0.65 µM | 3.27 µM | – | – | – | – | –
– | Cn1c(/C=C/C(=O)c2ccc(Cl)cc2Cl)cc(Br)c1Br | ≥ 100 µM | ≥ 100 µM | 1 µM | 1.84 µM | 14.7 µM | – | – | – | – | –
0.006 µM | Nc1nc(C2CCNC(=O)c3[nH]c(Br)c(Br)c32)c[nH]1 (centres undefined) | – | – | – | – | – | – | – | – | – | –
– | Cn1c(/C=C/C(=O)c2ccc(O)cc2)cc(Br)c1Br | 6 µM | ≥ 100 µM | 2.85 µM | 3.12 µM | 1.91 µM | – | – | – | – | –
– | Cn1c(-c2cc(-c3ccccc3O)no2)cc(Br)c1Br | ≥ 100 µM | 2.45 µM | ≥ 100 µM | ≥ 100 µM | ≥ 100 µM | – | – | – | – | –
– | O=c1cc(-c2cc(Br)c(Br)[nH]2)oc2ccccc12 | ≥ 100 µM | 1.28 µM | 0.41 µM | ≥ 100 µM | ≥ 100 µM | – | – | – | – | –
– | COc1ccc(C(=O)/C=C/c2cc(Br)c(Br)[nH]2)c(OC)c1 | ≥ 100 µM | ≥ 100 µM | 0.32 µM | 0.03 µM | 9.22 µM | – | – | – | – | –
